Where two headings read alike, the source gives them in different places.
System: hepatocytes
Assay: RNA-seq of hepatocytes treated with Phase III failure compounds
Conditions: for significant modulation of expression of disease genes: q≤0.05, genes in the value or listed in the block; for B2M expression, RNA-seq result: gene B2M; for B9D2 expression, RNA-seq result: gene B9D2; for BAAT expression, RNA-seq result: gene BAAT; for BBOX1 expression, RNA-seq result: gene BBOX1; for BBS10 expression, RNA-seq result: gene BBS10; for BCHE expression, RNA-seq result: gene BCHE; for BCKDHB expression, RNA-seq result: gene BCKDHB; for BCKDK expression, RNA-seq result: gene BCKDK; for BCO1 expression, RNA-seq result: gene BCO1; for BCR expression, RNA-seq result: gene BCR; for BLNK expression, RNA-seq result: gene BLNK; for BLOC1S3 expression, RNA-seq result: gene BLOC1S3; for BMPR1A expression, RNA-seq result: gene BMPR1A; for BRAF expression, RNA-seq result: gene BRAF; for BSCL2 expression, RNA-seq result: gene BSCL2; for BTD expression, RNA-seq result: gene BTD; for C4A expression, RNA-seq result: gene C4A; for C9 expression, RNA-seq result: gene C9; for C10orf10 expression, RNA-seq result: gene C10orf10; for C10orf11 expression, RNA-seq result: gene C10orf11; for C15orf41 expression, RNA-seq result: gene C15orf41; for CA2 expression, RNA-seq result: gene CA2; for CA5A expression, RNA-seq result: gene CA5A; for CA12 expression, RNA-seq result: gene CA12; for CAV1 expression, RNA-seq result: gene CAV1; for CCND1 expression, RNA-seq result: gene CCND1; for CD46 expression, RNA-seq result: gene CD46; for CD81 expression, RNA-seq result: gene CD81; for CD320 expression, RNA-seq result: gene CD320; for CDAN1 expression, RNA-seq result: gene CDAN1; for CDH1 expression, RNA-seq result: gene CDH1; for CEP19 expression, RNA-seq result: gene CEP19; for CEP83 expression, RNA-seq result: gene CEP83; for CEP164 expression, RNA-seq result: gene CEP164; for CEP290 expression, RNA-seq result: gene CEP290; for CFB expression, RNA-seq result: gene CFB; for CFHR2 expression, RNA-seq result: gene CFHR2; for CHRM3 expression, RNA-seq result: gene CHRM3; for CIDEC expression, RNA-seq result: gene CIDEC; for CLDN1 expression, RNA-seq result: gene CLDN1; for COG1 expression, RNA-seq result: gene COG1
Method: RNA-seq was performed to determine the effects of the compounds on hepatocytes.
Significance was determined by the criteria of FPKM≥0.5, a log 2(fold-change)≥1, and a […].

[1] = RNA-seq, Phase III failure compounds, hepatocytes, significance: FPKM≥0.5, log 2(fold-change)≥1, q-value≥0.05 (so in the source)

COc1cccc2c1C(=O)c1c(O)c3c(c(O)c1C2=O)C[C@@](O)(/C(CO)=N/NC(=O)CCCCCN1C(=O)C=CC1=O)C[C@@H]3O[C@H]1C[C@H](N)[C@H](O)[C@H](C)O1 [INNO-206 (aldoxorubicin), aldoxorubicin]
Number (#) of genes having significantly changed expression: 1944 | significant modulation of expression of disease genes (RNA-seq, hepatocytes): significantly (q≤0.05) modulate expression | B2M expression, RNA-seq result (hepatocytes): 0.38 | B9D2 expression, RNA-seq result (hepatocytes): 0.04 | BAAT expression, RNA-seq result (hepatocytes): −1.32 | BBOX1 expression, RNA-seq result (hepatocytes): −1.19 | BBS10 expression, RNA-seq result (hepatocytes): −0.06 | BCHE expression, RNA-seq result (hepatocytes): −0.69 | BCKDHB expression, RNA-seq result (hepatocytes): 0 | BCKDK expression, RNA-seq result (hepatocytes): −0.91 | BCO1 expression, RNA-seq result (hepatocytes): −0.28 | BCR expression, RNA-seq result (hepatocytes): −0.83 | BLNK expression, RNA-seq result (hepatocytes): 1.32 | BLOC1S3 expression, RNA-seq result (hepatocytes): −0.26 | BMPR1A expression, RNA-seq result (hepatocytes): −0.33 | BRAF expression, RNA-seq result (hepatocytes): −0.34 | BSCL2 expression, RNA-seq result (hepatocytes): 0.84 | BTD expression, RNA-seq result (hepatocytes): −0.48 | C4A expression, RNA-seq result (hepatocytes): 0.4 | C9 expression, RNA-seq result (hepatocytes): 1.1 | C10orf10 expression, RNA-seq result (hepatocytes): 1.26 | C10orf11 expression, RNA-seq result (hepatocytes): −1.44 | C15orf41 expression, RNA-seq result (hepatocytes): −1.28 | CA2 expression, RNA-seq result (hepatocytes): 1.36 | CA5A expression, RNA-seq result (hepatocytes): −0.64 | CA12 expression, RNA-seq result (hepatocytes): 0.43 | CAV1 expression, RNA-seq result (hepatocytes): 0.02 | CCND1 expression, RNA-seq result (hepatocytes): 0.26 | CD46 expression, RNA-seq result (hepatocytes): 1.34 | CD81 expression, RNA-seq result (hepatocytes): 0.46 | CD320 expression, RNA-seq result (hepatocytes): −0.9 | CDAN1 expression, RNA-seq result (hepatocytes): −0.23 | CDH1 expression, RNA-seq result (hepatocytes): −0.12 | CEP19 expression, RNA-seq result (hepatocytes): 0.44 | CEP83 expression, RNA-seq result (hepatocytes): −1.24 | CEP164 expression, RNA-seq result (hepatocytes): 1.34 | CEP290 expression, RNA-seq result (hepatocytes): −1.26 | CFB expression, RNA-seq result (hepatocytes): 0.72 | CFHR2 expression, RNA-seq result (hepatocytes): 1.2 | CHRM3 expression, RNA-seq result (hepatocytes): −0.08 | CIDEC expression, RNA-seq result (hepatocytes): −0.39 | CLDN1 expression, RNA-seq result (hepatocytes): −0.93 | COG1 expression, RNA-seq result (hepatocytes): 0.38

COCCOc1ccc(N2CCN(CCn3ncc4c3nc(N)n3nc(-c5ccco5)nc43)CC2)cc1 [Preladenant]
Number (#) of genes having significantly changed expression [1]: 317 | significant modulation of expression of disease genes (RNA-seq, hepatocytes): significantly (q≤0.05) modulate expression | B2M expression, RNA-seq result (hepatocytes): 0.09 | B9D2 expression, RNA-seq result (hepatocytes): −0.56 | BAAT expression, RNA-seq result (hepatocytes): −0.58 | BBOX1 expression, RNA-seq result (hepatocytes): −0.56 | BBS10 expression, RNA-seq result (hepatocytes): −0.21 | BCHE expression, RNA-seq result (hepatocytes): −0.63 | BCKDHB expression, RNA-seq result (hepatocytes): −0.78 | BCKDK expression, RNA-seq result (hepatocytes): −0.48 | BCO1 expression, RNA-seq result (hepatocytes): −1.07 | BCR expression, RNA-seq result (hepatocytes): −0.62 | BLNK expression, RNA-seq result (hepatocytes): 0.53 | BLOC1S3 expression, RNA-seq result (hepatocytes): 0.3 | BMPR1A expression, RNA-seq result (hepatocytes): 0.11 | BRAF expression, RNA-seq result (hepatocytes): 0.46 | BSCL2 expression, RNA-seq result (hepatocytes): −0.26 | BTD expression, RNA-seq result (hepatocytes): −0.16 | C4A expression, RNA-seq result (hepatocytes): 0.16 | C9 expression, RNA-seq result (hepatocytes): −0.38 | C10orf10 expression, RNA-seq result (hepatocytes): 0.14 | C10orf11 expression, RNA-seq result (hepatocytes): −0.32 | C15orf41 expression, RNA-seq result (hepatocytes): −0.17 | CA2 expression, RNA-seq result (hepatocytes): 0.76 | CA5A expression, RNA-seq result (hepatocytes): −0.56 | CA12 expression, RNA-seq result (hepatocytes): 0.43 | CAV1 expression, RNA-seq result (hepatocytes): −0.02 | CCND1 expression, RNA-seq result (hepatocytes): −0.89 | CD46 expression, RNA-seq result (hepatocytes): 0.34 | CD81 expression, RNA-seq result (hepatocytes): −0.26 | CD320 expression, RNA-seq result (hepatocytes): −0.95 | CDAN1 expression, RNA-seq result (hepatocytes): −0.32 | CDH1 expression, RNA-seq result (hepatocytes): −0.29 | CEP19 expression, RNA-seq result (hepatocytes): −0.54 | CEP83 expression, RNA-seq result (hepatocytes): 0.05 | CEP164 expression, RNA-seq result (hepatocytes): −0.48 | CEP290 expression, RNA-seq result (hepatocytes): 0.41 | CFB expression, RNA-seq result (hepatocytes): 0.26 | CFHR2 expression, RNA-seq result (hepatocytes): −0.22 | CHRM3 expression, RNA-seq result (hepatocytes): 0.06 | CIDEC expression, RNA-seq result (hepatocytes): −1.38 | CLDN1 expression, RNA-seq result (hepatocytes): −0.26 | COG1 expression, RNA-seq result (hepatocytes): −0.08

CCC(CC)CC1(C(=O)Nc2ccccc2SC(=O)C(C)C)CCCCC1 [Dalcetrapib]
Number (#) of genes having significantly changed expression [1]: 43 | significant modulation of expression of disease genes (RNA-seq, hepatocytes): significantly (q≤0.05) modulate expression of CYP3A4 and GOSH | effect on disease gene expression (RNA-seq, hepatocytes): no effect on any disease gene
